Assay results from paper PMC11012124, “Synthesis of Novel Triazine-Based Chalcones and 8,9-dihydro-7H-pyrimido[4,5-b][1,4]diazepines as Potential Leads in the Search of Anticancer, Antibacterial and Antifungal Agents” (International Journal of Molecular Sciences, 2024).
Values after ≈ are worked out from the molar mass of the structure shown.

Key:
[1] = system: Microsporum gypseum (CCC 115); experiment: Antifungal broth microdilution (CLSI); type: cell-based; details: Nannizzia gypsea; Mg: Microsporum gypseum
How it was run: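 Broth microdilution followed CLSI M27-A3 for yeasts and the filamentous-fungi reference method, in 200 μL final volume with DMSO-matched growth controls. Plates were incubated in the dark and humid at 30 °C for a time suited to each fungus; testing was done in triplicate.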

HS 578T = experiment: cells; details: Homo sapiens, 48 h; for CC50: read-out: LC50
OVCAR-3 = experiment: cells; details: Homo sapiens, OVCAR-3, 48 h; for CC50: read-out: LC50
[2] = Hemolytic activity, spectrophotometric; type: cell-based, human; details: human, human red blood cells (huRBC), 5% hematocrit, 200 μg/mL, 37 °C
MDA-MB-231/ATCC = experiment: cells; details: Homo sapiens, MDA-MB-231, 48 h; for CC50: read-out: LC50
HT29 = experiment: cells; details: Homo sapiens, HT-29, 48 h; for CC50: read-out: LC50
MCF7 = experiment: cells; details: Homo sapiens, MCF7, 48 h; for CC50: read-out: LC50
PC-3 = experiment: cells; details: Homo sapiens, PC-3, 48 h; for CC50: read-out: LC50
MOLT-4 = experiment: cells; details: Homo sapiens, MOLT-4, 48 h; for CC50: read-out: LC50
NCI-H522 = experiment: cells; details: Homo sapiens, NCI-H522, 48 h; for CC50: read-out: LC50
NCI/ADR-RES = experiment: cells; details: Homo sapiens, 48 h
T-47D = experiment: cells; details: Homo sapiens, T47D, 48 h; for CC50: read-out: LC50
K-562 = experiment: cells; details: Homo sapiens, K562, 48 h; for GI50: K-562, 48 h; for CC50: read-out: LC50
[3] = system: M. tuberculosis ATCC 27294; experiment: Antitubercular broth microdilution MIC; type: cell-based; details: Mycobacterium tuberculosis; M. tuberculosis ATCC 27294 (H37Rv); read-out: Minimum inhibitory concentration (MIC)
HOP-92 = experiment: cells; details: Homo sapiens, HOP-92, 48 h; for CC50: read-out: LC50
DU-145 = experiment: cells; details: Homo sapiens, DU-145, 48 h; for CC50: read-out: LC50
SF-539 = experiment: cells; details: Homo sapiens, SF-539, 48 h; for CC50: read-out: LC50, SF-539, 48 h
A498 = experiment: cells; details: Homo sapiens, A498, 48 h; for CC50: read-out: LC50
[4] = system: N. gonorrhoeae ATCC 49226; experiment: MIC on GC agar plates; type: cell-based, Neisseria gonorrhoeae; details: Neisseria gonorrhoeae, ATCC49226, read-out: MIC
How it was run: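 Agar dilution was used: GC agar with 1% IsoVitaleX containing increasing compound concentrations was inoculated with 1 × 10^4 CFU. The MIC was taken as the lowest concentration inhibiting growth, with growth confirmed by oxidase test, in duplicate across at least two independent experiments.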

UACC-62 = experiment: cells; details: Homo sapiens, UACC-62, 48 h; for CC50: read-out: LC50
TK-10 = experiment: cells; details: Homo sapiens, TK-10, 48 h; for CC50: read-out: LC50
SK-OV-3 = experiment: cells; details: Homo sapiens, SK-OV-3, 48 h; for CC50: read-out: LC50
CAKI-1 = experiment: cells; details: Homo sapiens, CAKI-1, 48 h; for CC50: read-out: LC50
HCC-2998 = experiment: cells; details: Homo sapiens, HCC 2998, 48 h; for CC50: read-out: LC50
MDA-MB-468 = experiment: cells; details: Homo sapiens, MDA-MB-468, 48 h; for CC50: read-out: LC50
LOX IMVI = experiment: cells; details: Homo sapiens, 48 h; for CC50: read-out: LC50, LOX IMVI, 48 h
RXF 393 = experiment: cells; details: Homo sapiens, RXF 393, 48 h; for CC50: read-out: LC50
SR = experiment: cells; details: Homo sapiens, 48 h

Compound: CN(C)c1nc(NCCNS(=O)(=O)c2ccc(C(=O)/C=C/c3ccc(Cl)cc3)cc2)nc(Nc2ccc(F)cc2)n1 [24e]
- MIC [1]: > 250 µg/mL
- GI50 (HS 578T): 11.4 µM
- CC50 (HS 578T): 58.1 µM
- GI50 (OVCAR-3): 3.16 µM
- CC50 (OVCAR-3): 11.9 µM
- hemolysis at 24 h, 200 µg/mL [2]: 9.1%
- GI50 (MDA-MB-231/ATCC): 4.72 µM
- CC50 (MDA-MB-231/ATCC): 17.4 µM
- GI50 (HT29): 2.15 µM
- CC50 (HT29): 5.72 µM
- GI50 (MCF7): 2.28 µM
- CC50 (MCF7): 6.33 µM
- GI50 (PC-3): 3.74 µM
- CC50 (PC-3): 14.1 µM
- GI50 (MOLT-4): 3.07 µM
- CC50 (MOLT-4): > 100 µM
- GI50 (NCI-H522): 7.1 µM
- CC50 (NCI-H522): 22 µM
- GI50 (NCI/ADR-RES): 5.49 µM
- CC50 (NCI/ADR-RES; read-out: LC50): 18.4 µM
- GI50 (T-47D): 4.37 µM
- CC50 (T-47D): 18 µM
- GI50 (K-562): 3.29 µM
- CC50 (K-562): > 100 µM
- MIC [3]: 25 µg/mL (≈ 41.9 µM)
- GI50 (HOP-92): 3.83 µM
- CC50 (HOP-92): 14.7 µM
- GI50 (DU-145): 9.7 µM
- CC50 (DU-145): 21.8 µM
- GI50 (SF-539): 10.1 µM
- CC50 (SF-539): 22 µM
- GI50 (A498): 10.5 µM
- CC50 (A498): 23.1 µM
- MIC [4]: 500 µg/mL (≈ 839 µM)
- GI50 (UACC-62): 5.41 µM
- CC50 (UACC-62): 18.7 µM
- GI50 (TK-10): 11.7 µM
- CC50 (TK-10): 30.3 µM
- GI50 (SK-OV-3): 11.5 µM
- CC50 (SK-OV-3): 27.7 µM
- GI50 (CAKI-1): 4.93 µM
- CC50 (CAKI-1): 19.5 µM
- GI50 (HCC-2998): 2.48 µM
- CC50 (HCC-2998): 6.9 µM
- GI50 (MDA-MB-468): 3.71 µM
- CC50 (MDA-MB-468): 14.8 µM
- GI50 (LOX IMVI): 2.74 µM
- CC50 (LOX IMVI): 9.16 µM
- GI50 (RXF 393): 3.09 µM
- CC50 (RXF 393): 15.1 µM

Compound: COc1cc(C2CC(c3ccc(Cl)cc3)=Nc3c(N)nc(N)nc3N2)ccc1Oc1nc(Nc2ccc(F)cc2)nc(N(C)C)n1 (stereo not drawn) [29e]
- MIC [1]: > 250 µg/mL
- GI50 (HS 578T): 84.8 µM
- CC50 (HS 578T): > 100 µM
- GI50 (SR): 3.41 µM
- CC50 (SR; read-out: LC50): > 100 µM
- GI50 (OVCAR-3): > 100 µM
- CC50 (OVCAR-3): > 100 µM
- GI50 (MDA-MB-231/ATCC): 6.73 µM
- CC50 (MDA-MB-231/ATCC): > 100 µM
- GI50 (HT29): 29.4 µM
- CC50 (HT29): > 100 µM
- GI50 (MCF7): 9.9 µM
- CC50 (MCF7): > 100 µM
- GI50 (PC-3): 6.16 µM
- CC50 (PC-3): > 100 µM
- GI50 (MOLT-4): 8.54 µM
- CC50 (MOLT-4): > 100 µM
- GI50 (NCI-H522): > 100 µM
- CC50 (NCI-H522): > 100 µM
- GI50 (T-47D): > 100 µM
- CC50 (T-47D): > 100 µM
- GI50 (K-562): 4.5 µM
- CC50 (K-562): > 100 µM
- MIC [3]: 1.2 µg/mL (≈ 1.87 µM)
- GI50 (HOP-92): 3 µM
- CC50 (HOP-92): > 100 µM
- GI50 (DU-145): > 100 µM
- CC50 (DU-145): > 100 µM
- GI50 (SF-539): > 100 µM
- CC50 (SF-539): > 100 µM
- GI50 (A498): > 100 µM
- CC50 (A498): > 100 µM
- MIC [4]: ≥ 500 µg/mL
- GI50 (UACC-62): > 100 µM
- CC50 (UACC-62): > 100 µM
- GI50 (TK-10): > 100 µM
- CC50 (TK-10): > 100 µM
- GI50 (SK-OV-3): > 100 µM
- CC50 (SK-OV-3): > 100 µM
- GI50 (CAKI-1): 3.38 µM
- CC50 (CAKI-1): > 100 µM
- GI50 (HCC-2998): 45.3 µM
- CC50 (HCC-2998): > 100 µM
- GI50 (MDA-MB-468): 17.8 µM
- CC50 (MDA-MB-468): > 100 µM
- GI50 (LOX IMVI): 47.8 µM
- CC50 (LOX IMVI): > 100 µM
- GI50 (RXF 393): 2.46 µM
- CC50 (RXF 393): > 100 µM
